Target: T1, purified catalytic domain of recombinant human TACE (rhTACEc) (Homo sapiens, UniProt P78536, N452Q/S266A)
T1 construct: rhTACEc, Residue 215 to 477 with two mutation (S266A and N452Q) and a 6× His tail; 6xHis (C); made in house; host or cells: baculovirus/Hi5 insect cells
Experiment: TACE kinetic assay, cleavage of internally quenched peptide substrate SPDL-3
Type: biochemical
Experimental: TACE activity is determined by a kinetic assay measuring the rate of increase in fluorescent intensity generated by TACE catalyzed cleavage of an internally quenched peptide substrate (SPDL-3). The purified catalytic domain of recombinant human TACE (rhTACEc, Residue 215 to 477 with two mutation (S266A and N452Q) and a 6× His tail) is used in the assay. It is purified from the baculovirus/Hi5 cells expression system using affinity chromatography. The substrate SPDL-3 is an internally quenched peptide (MCA-Pro-Leu-Ala-Gln-Ala-Val-Arg-Ser-Ser-Ser-Dpa-Arg-NH2), with its sequence derived from the pro-TNFα cleavage site. MCA is (7-Methoxycoumarin-4-yl)acetyl. Dpa is N-3-(2,4-Dinitrophenyl)-L-2,3-diaminopropionyl.
A 50 μl assay mixture contains 20 mM HEPES, pH 7.3, 5 mM CaCl2, 100 μM ZnCl2, 2% DMSO, 0.04% Methylcellulose, 30 μM SPDL-3, 70 pM rhTACEc and a test compound. RhTACEc is pre-incubated with the testing compound for 90 min. at 25° C. Reaction is started by addition of the substrate. The fluorescent intensity (excitation at 320 nm, emission at 405 nm) was measured every 45 seconds for 30 min. using a fluorospectrometer (GEMINI XS, Molecular Devices). Rate of enzymatic reaction is shown as Units per second. Effect of a test compound is shown as % of TACE activity in the absence of the compound.

[1] = Specific TACE inhibitory activity (Ki values)
[2] = TACE inhibitory activity, class letters

T1 sequence (P78536 215-477 S266A/N452Q): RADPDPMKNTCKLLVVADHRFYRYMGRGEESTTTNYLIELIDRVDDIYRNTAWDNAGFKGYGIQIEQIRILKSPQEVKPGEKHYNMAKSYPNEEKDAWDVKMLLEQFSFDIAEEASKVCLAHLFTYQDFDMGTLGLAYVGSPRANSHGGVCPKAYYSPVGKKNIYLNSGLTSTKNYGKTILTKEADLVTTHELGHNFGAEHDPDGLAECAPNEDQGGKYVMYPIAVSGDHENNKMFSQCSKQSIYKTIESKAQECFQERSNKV

SMILES | Ki [1] [nM] | Ki [2] [nM]
CCOC(=O)[C@@]1(Cc2ccc(OCc3cc(-c4ccccc4)nc4ccccc34)cc2)CNC[C@@H]1C(=O)NO [Compound A12] | 59 | 20 to 100
O=C1N[C@H](C(=O)NO)[C@@H]1Cc1ccc(OCc2cc(-c3ccccc3)nc3ccccc23)cc1 [Compound B8] | 11.7 | < 20
O=C(NO)[C@H]1NC(=O)[C@@H]1Cc1ccc(OCc2cc(-c3ccccc3)nc3ccccc23)cc1 [Compound C5] | 55 | 20 to 100
COC(=O)C(Oc1ccc(C[C@H]2C(=O)N[C@@H]2C(=O)NO)cc1)c1cc(-c2ccccc2)nc2ccccc12 (stereo partly shown) [Compound E3] | – | 100 to 1000
